In PubChem BioAssay (NCI):
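Growth conditions: 96-well plates. Treatment: test compound, 48 hours, 5 concentrations. Analysis: linear interpolation between bracketing concentrations; unreached endpoints set to highest concentration. GI50 marks 50% less growth. The concentration for full growth arrest is given as TGI.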

What was measured:
Test in all cases: NCI-60 cell line screen, 48 h
[1] = system: SNB-19 CNS
[2] = system: SF-295 CNS
[3] = system: NCI-H522 lung
[4] = system: TK-10 renal
[5] = system: SK-MEL-2 melanoma
[6] = system: HOP-92 NSCLC
[7] = system: NCI-H23 lung
[8] = system: MDA-MB-231 breast
[9] = system: SK-MEL-5 melanoma
[10] = system: SN12C renal
[11] = system: ACHN renal
[12] = system: DU-145 prostate
[13] = system: MOLT-4 leukemia
[14] = system: SNB-75 CNS
[15] = system: NCI/ADR-RES ovarian
[16] = system: HCT-15 colon
[17] = system: K-562 leukemia
[18] = system: COLO 205 colon
[19] = system: IGROV1 ovarian
[20] = system: CAKI-1 renal
[21] = system: NCI-H460 lung
[22] = system: RXF 393 renal
[23] = system: MDA-MB-435
[24] = system: HS 578T breast
[25] = system: OVCAR-8 ovarian
[26] = system: SW-620 colon
[27] = system: UACC-257 melanoma
[28] = system: RPMI-8226 leukemia
[29] = system: HCT-116 colon
[30] = system: OVCAR-4 ovarian
[31] = system: HCC-2998 colon
[32] = system: KM12 colon
[33] = system: PC-3 prostate
[34] = system: NCI-H226 lung
[35] = system: A498 renal
[36] = system: OVCAR-3 ovarian
[37] = system: CCRF-CEM leukemia
[38] = system: MCF7 breast
[39] = system: MALME-3M melanoma
[40] = system: T-47D breast
[41] = system: SK-MEL-28 melanoma
[42] = system: UO-31 renal
[43] = system: HOP-62 NSCLC
[44] = system: UACC-62 melanoma
[45] = system: SK-OV-3 ovarian
[46] = system: SF-539 CNS
[47] = system: OVCAR-5 ovarian
[48] = system: U251 CNS
[49] = system: LOX IMVI melanoma
[50] = system: SF-268 CNS
[51] = system: 786-0 renal
[52] = system: A549 NSCLC
[53] = system: HL-60(TB) leukemia
[54] = system: HT29 colon
[55] = system: M14 melanoma
[56] = system: EKVX NSCLC
[57] = system: BT-549 breast
[58] = system: SR leukemia

With Cc1ccc(NS(=O)(=O)c2ccc(-c3cnc(C4CC4)o3)cc2)cc1C the GI50 [1] was 0.522 µM, the TGI [1] was greater than 63.8 µM and the GI50 [2] was 0.407 µM. For the same compound, the TGI [2] was 3.47 µM, the GI50 [3] was 0.267 µM and the TGI [3] was 3.28 µM. The GI50 [4] was 1.44 µM, the TGI [4] was 8.03 µM and the GI50 [5] was 0.797 µM. For the same compound, the TGI [5] was 14.4 µM, the GI50 [6] was 0.308 µM and the TGI [6] was 3.35 µM. The GI50 [7] was 1.13 µM, the TGI [7] was greater than 57.8 µM and the GI50 [8] was 0.797 µM. For the same compound, the TGI [8] was 15.9 µM, the GI50 [9] was 0.39 µM and the TGI [9] was 1.7 µM. For the same compound, the GI50 [10] was 0.711 µM, the TGI [10] was greater than 34 µM and the GI50 [11] was 0.673 µM. The TGI [11] was greater than 33.9 µM, the GI50 [12] was 0.972 µM and the TGI [12] was greater than 68.7 µM. For the same compound, the GI50 [13] was 0.583 µM, the TGI [13] was greater than 52.7 µM and the GI50 [14] was 0.184 µM. The TGI [14] was 0.823 µM, the GI50 [15] was 0.407 µM and the TGI [15] was greater than 41.8 µM. The GI50 [16] was 0.302 µM, the TGI [16] was greater than 33.2 µM and the GI50 [17] was less than 0.0373 µM. For the same compound, the TGI [17] was greater than 68.4 µM, the GI50 [18] was 0.464 µM and the TGI [18] was 1.84 µM. The GI50 [19] was 0.593 µM, the TGI [19] was greater than 43.3 µM and the GI50 [20] was 0.385 µM. The TGI [20] was greater than 42.1 µM, the GI50 [21] was 0.481 µM and the TGI [21] was 11.5 µM. For the same compound, the GI50 [22] was 0.338 µM, the TGI [22] was 3.89 µM and the GI50 [23] was less than 0.0252 µM. The TGI [23] was 2.46 µM, the GI50 [24] was 0.45 µM and the TGI [24] was 5.77 µM. The GI50 [25] was 0.916 µM, the TGI [25] was greater than 55.9 µM and the GI50 [26] was 0.341 µM. For the same compound, the TGI [26] was greater than 72.2 µM, the GI50 [27] was 0.836 µM and the TGI [27] was 9.55 µM. It also gave a GI50 [28] of 0.45 µM, a TGI [28] greater than 25.4 µM and a GI50 [29] of 0.394 µM. It also gave a TGI [29] of 10.8 µM, a GI50 [30] of 0.912 µM and a TGI [30] of 10.4 µM. The GI50 [31] was 1.57 µM, the TGI [31] was greater than 32.8 µM and the GI50 [32] was 0.279 µM. The TGI [32] was greater than 32.6 µM, the GI50 [33] was 0.432 µM and the TGI [33] was greater than 27.6 µM. It also gave a GI50 [34] of 0.843 µM, a TGI [34] greater than 28.4 µM and a GI50 [35] of 0.228 µM. For the same compound, the TGI [35] was 0.932 µM, the GI50 [36] was 0.342 µM and the TGI [36] was 12.5 µM. For the same compound, the GI50 [37] was 0.433 µM, the TGI [37] was greater than 59.3 µM and the GI50 [38] was 0.279 µM. It also gave a GI50 [39] of 0.683 µM, a TGI [39] of 18.1 µM and a GI50 [40] of 0.373 µM. For the same compound, the TGI [40] was 16.7 µM, the GI50 [41] was 1.26 µM and the TGI [41] was greater than 45.4 µM. For the same compound, the GI50 [42] was 0.839 µM, the TGI [42] was 7.74 µM and the GI50 [43] was 0.557 µM. For the same compound, the TGI [43] was greater than 40.1 µM, the GI50 [44] was 0.383 µM and the TGI [44] was greater than 38 µM. The GI50 [45] was 0.917 µM, the TGI [45] was greater than 29.1 µM and the GI50 [46] was 0.366 µM. The TGI [46] was 1.77 µM, the GI50 [47] was 1.31 µM and the TGI [47] was greater than 38.8 µM. The GI50 [48] was 0.458 µM, the TGI [48] was greater than 33.9 µM and the GI50 [49] was 0.524 µM. For the same compound, the TGI [49] was greater than 32.3 µM, the GI50 [50] was 1.11 µM and the TGI [50] was greater than 36.8 µM. For the same compound, the GI50 [51] was 0.544 µM, the TGI [51] was greater than 37.8 µM and the GI50 [52] was 0.751 µM. For the same compound, the TGI [52] was greater than 49.2 µM, the GI50 [53] was 0.259 µM and the TGI [53] was 1.46 µM. It also gave a GI50 [54] of 0.33 µM, a TGI [54] of 1.57 µM and a GI50 [55] of 0.375 µM. For the same compound, the TGI [55] was 11.8 µM, the GI50 [56] was 0.713 µM and the TGI [56] was greater than 45.4 µM. It also gave a GI50 [57] of 0.715 µM, a TGI [57] of 13.7 µM and a GI50 [58] of 0.476 µM. For the same compound, the TGI [58] was greater than 100 µM.
CCN(CCCNC(=O)Cc1cc(=O)oc2cc(N(C)C)ccc12)CCNc1ccnc2cc(Cl)ccc12 was tested, and the GI50 [1] was 18.9 µM, the TGI [1] was 52.7 µM and the GI50 [2] was 12.4 µM. It also gave a TGI [2] of 27.6 µM, a GI50 [3] of 4.4 µM and a TGI [3] of 16.2 µM. The GI50 [4] was 6.46 µM, the TGI [4] was 20.3 µM and the GI50 [5] was 12.6 µM. The TGI [5] was 26.2 µM, the GI50 [6] was 1.48 µM and the TGI [6] was 13.8 µM. It also gave a GI50 [7] of 14 µM, a TGI [7] of 34.3 µM and a GI50 [8] of 3.47 µM. It also gave a TGI [8] of 16.9 µM, a GI50 [9] of 1.55 µM and a TGI [9] of 2.93 µM. It also gave a GI50 [10] of 13.9 µM, a TGI [10] of 36 µM and a GI50 [11] of 9.21 µM. The TGI [11] was 24.3 µM, the GI50 [12] was 18.4 µM and the TGI [12] was 47.7 µM. It also gave a GI50 [13] of 8.13 µM, a TGI [13] of 28 µM and a GI50 [14] of 6.44 µM. For the same compound, the TGI [14] was 25.6 µM, the GI50 [15] was 30.7 µM and the TGI [15] was greater than 100 µM. The GI50 [16] was 10.4 µM, the TGI [16] was 29.5 µM and the GI50 [17] was 2.78 µM. It also gave a TGI [17] of 7.56 µM, a GI50 [18] of 6.54 µM and a TGI [18] of 20.8 µM. It also gave a GI50 [19] of 13.1 µM, a TGI [19] of 35.1 µM and a GI50 [20] of 15.6 µM. The TGI [20] was 39.5 µM, the GI50 [21] was 9.54 µM and the TGI [21] was 22.3 µM. It also gave a GI50 [22] of 1.72 µM, a TGI [22] of 5.15 µM and a GI50 [23] of 2.29 µM. It also gave a TGI [23] of 5.78 µM, a GI50 [24] of 13.3 µM and a TGI [24] of 32.1 µM. It also gave a GI50 [25] of 8.29 µM, a TGI [25] of 61.7 µM and a GI50 [26] of 5.84 µM. It also gave a TGI [26] of 19.4 µM, a GI50 [27] of 1.79 µM and a TGI [27] of 3.65 µM. For the same compound, the GI50 [28] was 12.4 µM, the TGI [28] was 38.8 µM and the GI50 [29] was 4.86 µM. It also gave a TGI [29] of 17 µM, a GI50 [30] of 15 µM and a TGI [30] of 41.4 µM. The GI50 [31] was 7.87 µM, the TGI [31] was 21.3 µM and the GI50 [32] was 12.5 µM. The TGI [32] was 28.1 µM, the GI50 [33] was 13.8 µM and the TGI [33] was 37.9 µM. For the same compound, the GI50 [34] was 10.9 µM, the TGI [34] was 34.4 µM and the GI50 [35] was 12.4 µM. It also gave a TGI [35] greater than 100 µM, a GI50 [36] of 14 µM and a TGI [36] of 33.2 µM. For the same compound, the GI50 [37] was 4.38 µM, the TGI [37] was 34 µM and the GI50 [38] was 7.42 µM. For the same compound, the TGI [38] was 22.7 µM, the GI50 [39] was 1.83 µM and the TGI [39] was 3.86 µM. It also gave a GI50 [40] of 12.5 µM, a TGI [40] of 39.8 µM and a GI50 [42] of 15.5 µM. The TGI [42] was 40.6 µM, the GI50 [43] was 13.2 µM and the TGI [43] was 32.5 µM. The GI50 [44] was 3.36 µM, the TGI [44] was 11.9 µM and the GI50 [45] was 23.9 µM. For the same compound, the TGI [45] was 56.5 µM, the GI50 [46] was 1.69 µM and the TGI [46] was 3.42 µM. It also gave a GI50 [47] of 16.5 µM, a TGI [47] of 38.2 µM and a GI50 [48] of 3.4 µM. The TGI [48] was 12.6 µM, the GI50 [49] was 2 µM and the TGI [49] was 5.01 µM. The GI50 [50] was 11.3 µM, the TGI [50] was 30.5 µM and the GI50 [51] was 16 µM. The TGI [51] was 36.8 µM, the GI50 [52] was 11.3 µM and the TGI [52] was 28.6 µM. It also gave a GI50 [53] of 16.3 µM, a TGI [53] of 44.2 µM and a GI50 [54] of 3.39 µM. The TGI [54] was 12.1 µM, the GI50 [55] was 2.08 µM and the TGI [55] was 3.85 µM. It also gave a GI50 [56] of 22.2 µM, a TGI [56] of 70 µM and a GI50 [57] of 14.4 µM. For the same compound, the TGI [57] was 34.6 µM, the GI50 [58] was 2.6 µM and the TGI [58] was 6.64 µM.
